Data as given in PMC5923485 (Viruses, 2018).
Read-outs that look alike come from different tables or passages of the source.

Legend:
RVFV = details: mouse, in vivo; cited from earlier work
[1] = test system: S6 ribosomal protein (Ser235/236) phosphorylation and RVFV NP; format: cell-based, mouse
in vitro = details: mouse
RVFV MP12 ∆NSs-Luc = test: microbe, parasite or virus in culture; format: cell-based, Rift Valley fever virus; details: for inhibition at 100 µM: read-out: inhibition of RVFV MP12-luc
RVFV MP12 = format: cell-based, Rift Valley fever virus

Row | Compound | protection from RVFV induced pathogenesis (RVFV) | levels of RVFV NP [1] | phosphorylation of S6 ribosomal protein (Ser 235/236) [1] | CC50 (in vitro) [µM] | EC50 (RVFV MP12 ∆NSs-Luc; Rift Valley fever virus, 18 h) [µM] | CC50 (H2.35 cells) [µM] | EC50 (RVFV MP12 ∆NSs-Luc; read-out: EC50) [µM] | increase of infectious viral titer (RVFV MP12) | effect of increasing drug concentration on viral replication (luciferase) (RVFV MP12 ∆NSs-Luc) | effect on RVFV titers (RVFV MP12) | decrease in viability (H2.35 cells; mouse) | inhibition at 100 µM (RVFV MP12 ∆NSs-Luc; Rift Valley fever virus) [%] | cell toxicity (H2.35 cells)
1 | CO[C@H]1C[C@@H]2CC[C@@H](C)[C@@](O)(O2)C(=O)C(=O)N2CCCC[C@H]2C(=O)O[C@H]([C@H](C)C[C@@H]2CC[C@@H](O)[C@H](OC)C2)CC(=O)[C@H](C)/C=C(\C)[C@@H](O)[C@@H](OC)C(=O)[C@H](C)C[C@H](C)/C=C/C=C/C=C/1C [Rapamycin] | protects mice | markedly decreased | markedly decreased | > 100 | 18 |  |  |  |  |  |  |  | 
2 | CCc1cncnc1N1CCN(Cc2nc3ccc(C(F)(F)F)cc3[nH]2)CC1 [PF-4708671] |  | decreased | decreased phosphorylation |  |  | > 50 | 17 |  |  |  |  |  | 
3 | CC(C)CCN1c2nc(Nc3cc(F)c(O)c(F)c3)ncc2N(C)C(=O)C1C (centres unmarked) [BI-D1870] |  | modestly increased | no apparent change |  |  |  |  | approximately 0.5 log | viral replication increased |  |  |  | 
4 | O=C(NOC[C@H](O)CO)c1ccc(F)c(F)c1Nc1ccc(I)cc1F [PD0325901] |  | minimal inhibition | minimal inhibition | > 100 | > 50 |  |  |  |  | minimal inhibition | ~ 20% | 52 | 
5 | C[S+]([O-])c1ccc(-c2nc(-c3ccncc3)c(-c3ccc(F)cc3)[nH]2)cc1 (centres unmarked) [SB203580] |  | minimal inhibition | minimal inhibition | > 100 |  |  |  |  |  | minimal inhibition |  | 45 | no appreciable cell toxicity
